Test results taken from US20140128412A1, “COMBINATION OF AN ANT[…] AN ANTI-INFLAMMATORY AGENT” (priority 2011, published 2014).

Assays:
Format in all cases: in vivo, human
[1] = tested on: plasma BDNF; test: Plasma BDNF level by ELISA in the double-blind clinical trial; settings: schizophrenic patients, after 11 weeks of treatment; FIG. 3D
Description: (§1) One hundred and thirty-seven Han Chinese schizophrenic patients and 67 Han Chinese healthy controls (age range: 20-59 years old) were recruited from the Department of Psychiatry at National Cheng Kung University Hospital and the National Defense Medical Center. All patients were screened for being used. The Chinese version of the SADS-L, which has good reliability and validity, was used to screen all participants for psychiatric conditions and whether they fit the DSM-IV diagnostic criteria for schizophrenia without any comorbidity. […]
(§2) Ten milliliters of whole blood was drawn and collected from each participant's antecubital vein at the screening visit (V), 0, 1, 2, 4, 6, 8, and 11 weeks. […] Plasma cytokine, CRP and BDNF concentrations were quantified using enzyme-linked immunosorbent assays (ELISA). A kit (Quantikine Human Cytokine kit; R&D Systems) and an ELISA reader (SpectraMax-M2; Molecular Devices) ELISA reader were used to analysis plasma IL-1β, TNF-α, CRP, and BDNF levels. […]

[2] = tested on: plasma IL-1β; test: Plasma IL-1β level by ELISA in the double-blind clinical trial; settings: schizophrenic patients, FIG. 3A
Description: as §1, §2

[3] = tested on: plasma CRP; test: Plasma CRP level by ELISA in the double-blind clinical trial; settings: schizophrenic patients, FIG. 3C
Description: One hundred and thirty-seven Han Chinese schizophrenic patients and 67 Han Chinese healthy controls (age range: 20-59 years old) were recruited from the Department of Psychiatry at National Cheng Kung University Hospital and the National Defense Medical Center. All patients were screened for being used. The Chinese version of the SADS-L, which has good reliability and validity, was used to screen all participants for psychiatric conditions and whether they fit the DSM-IV diagnostic criteria for schizophrenia without any comorbidity. Exclusion conditions were: 1) pregnant or nursing women; 2) women of childbearing potential not using adequate contraception as per investigator judgment or not willing to use contraception for the duration of study; 3) patients who had used dextromethorphan, other selective cyclooxygenase 2 inhibitors, or other anti-inflammatory medication within 1 week before the first dose of double-blind medication; 4) a major mental illness other than schizophrenia, including alcoholism and illegal substance use disorder; 5) a clinically significant medical condition, e.g., cardiac, hepatic, or renal disease with current evidence of poor control; 6) patient who had undergone electroconvulsive therapy within 4 weeks before the first dose of double-blind medication; 7) SGOT, SGPT, BUN, and creatinine levels/an SGOT, SGPT, BUN, or creatinine level greater than 3-fold the upper limit of normal. All the healthy controls were free of major and minor mental illness. […]
as §2

[4] = tested on: plasma TNF-α; test: Plasma TNF-α level by ELISA in the double-blind clinical trial; settings: schizophrenic patients, FIG. 3B
Description: One hundred and thirty-seven Han Chinese schizophrenic patients and 67 Han Chinese healthy controls (age range: 20-59 years old) were recruited from the Department of Psychiatry at National Cheng Kung University Hospital and the National Defense Medical Center. All patients were screened for being used. The Chinese version of the SADS-L, which has good reliability and validity, was used to screen all participants for psychiatric conditions and whether they fit the DSM-IV diagnostic criteria for schizophrenia without any comorbidity. Exclusion conditions were: 1) pregnant or nursing women; 2) women of childbearing potential not using adequate contraception as per investigator judgment or not willing to use contraception for the duration of study; 3) patients who had used dextromethorphan, other selective cyclooxygenase 2 inhibitors, or other anti-inflammatory medication within 1 week before the first dose of double-blind medication; 4) a major mental illness other than schizophrenia, including alcoholism and illegal substance use disorder; 5) a clinically significant medical condition, e.g., cardiac, hepatic, or renal disease with current evidence of poor control; 6) patient who had undergone electroconvulsive therapy within 4 weeks before the first dose of double-blind medication; 7) SGOT, SGPT, BUN, and creatinine levels/an SGOT, SGPT, BUN, or creatinine level greater than 3-fold the upper limit of normal. All the healthy controls were free of major and minor mental illness. All research involving humans was reviewed and approved by the National Chung Kung University and National Defense Medical Center Institutional Review Boards before the study began.
This study was a double-blind, stratified, randomized, parallel-group, two-center clinical trial. The treatment was risperidone plus a double-blind add-on of randomly assigned DM or a placebo. Participants began the study immediately after they had been screened for eligibility (screening visit: V). The pre-treatment study phase consisted of a 7-day (V to 0 week) antipsychotic switch-over period for patients (patient hospitalized) who were taking oral antipsychotic medication other than risperidone alone at the screening, or who had been using depot medication for an entire cycle before the screening. […]
as §2

## Cc1nc2n(c(=O)c1CCN1CCC(c3noc4cc(F)ccc34)CC1)CCCC2 [Risp only, risperidone]
[1]
  change in plasma BDNF levels: did not change
[2]; after 11 weeks of treatment, risperidone 1-6 mg/day, DM 60 mg/day
  change in plasma IL-1β levels: significant decrease
[2]
  time after which plasma IL-1β level fell: 8 weeks
[3]; before add-on treatment, mean±SEM
  plasma CRP level at start (first value of 'from ... to'): 2576.0±484.0
[3]; end of treatment, mean±SEM
  plasma CRP level at end (second value of 'from ... to'): 1946.0±369.6
[3]; over the study
  change in plasma CRP levels: tended to decrease but were not significantly different
[4]; end of study (11 weeks) vs visit
  plasma TNF-α levels at the end of the study: significantly higher
[4]; visit to 11 weeks
  course of plasma TNF-α levels during the study: rose significantly
[4]
  time after which plasma TNF-α levels rose significantly: 4 weeks
  time of peak plasma TNF-α level: 6 weeks
